In ChEMBL document CHEMBL1201862, “PubChem BioAssay data set” (2004):
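Results reflect a 48-hour exposure of cells in 96-well plates to compound at five concentrations. GI50 = concentration required for 50% inhibition of growth.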 Calls of active or inactive are those of the source. Cut-off read from the data, not from the text of the source: active = GI50 up to about 1.1 µM and inactive = higher.

Assays:
Experiment in all cases: inhibition of tumour cell growth, NCI panel, 48 h
HCT-116 = test system: HCT-116
HCC 2998 = test system: HCC 2998
Malme-3M = test system: Malme-3M
A549 = test system: A549
UO-31 = test system: UO-31
SNB-78 = test system: SNB-78
EKVX = test system: EKVX
DMS-273 = test system: DMS-273
NCI-H226 = test system: NCI-H226
K562 = test system: K562
TK-10 = test system: TK-10
DLD-1 = test system: DLD-1
RPMI-8226 = test system: RPMI-8226
NCI-H23 = test system: NCI-H23
UACC-62 = test system: UACC-62
MOLT-4 = test system: MOLT-4
SK-OV-3 = test system: SK-OV-3
HL-60 = test system: HL-60
HCT-15 = test system: HCT-15
OVCAR-8 = test system: OVCAR-8
OVCAR-3 = test system: OVCAR-3
SF-268 = test system: SF-268
SF-295 = test system: SF-295
DMS-114 = test system: DMS-114
KM12 = test system: KM12
HOP-92 = test system: HOP-92
SK-MEL-2 = test system: SK-MEL-2
KM-20L2 = test system: KM-20L2
NCI-H522 = test system: NCI-H522
SN12C = test system: SN12C
SF-539 = test system: SF-539
SR = test system: SR
CCRF-CEM = test system: CCRF-CEM
A498 = test system: A498
U-251 = test system: U-251
HOP-62 = test system: HOP-62
IGROV-1 = test system: IGROV-1
NCI-H460 = test system: NCI-H460
OVCAR-4 = test system: OVCAR-4
SNB-19 = test system: SNB-19
786-0 = test system: 786-0
RXF 393 = test system: RXF 393
LXFL 529 = test system: LXFL 529
UACC-257 = test system: UACC-257
SK-MEL-28 = test system: SK-MEL-28
COLO 205 = test system: COLO 205
LOX IMVI = test system: LOX IMVI
M14 = test system: M14
ACHN = test system: ACHN
HOP-18 = test system: HOP-18
HT-29 = test system: HT-29
CAKI-1 = test system: CAKI-1
SW-620 = test system: SW-620
SK-MEL-5 = test system: SK-MEL-5
SNB-75 = test system: SNB-75
OVCAR-5 = test system: OVCAR-5
M19-MEL = test system: M19-MEL
XF498 = test system: XF498

Structure (SMILES): CCOC(=O)CC[C@H](NC(=O)c1nc[nH]c1[N+](=O)[O-])C(=O)OCC
- GI50 (HCT-116): > 100 µM (inactive)
- GI50 (HCC 2998): > 100 µM (inactive)
- GI50 (Malme-3M): > 100 µM (inactive)
- GI50 (A549): > 100 µM (inactive)
- GI50 (UO-31): > 100 µM (inactive)
- GI50 (SNB-78): > 100 µM (inactive)
- GI50 (EKVX): > 100 µM (inactive)
- GI50 (DMS-273): > 100 µM (inactive)
- GI50 (NCI-H226): > 100 µM (inactive)
- GI50 (K562): > 100 µM (inactive)
- GI50 (TK-10): > 100 µM (inactive)
- GI50 (DLD-1): > 100 µM (inactive)
- GI50 (RPMI-8226): > 100 µM (inactive)
- GI50 (NCI-H23): > 100 µM (inactive)
- GI50 (UACC-62): > 100 µM (inactive)
- GI50 (MOLT-4): > 100 µM (inactive)
- GI50 (SK-OV-3): > 100 µM (inactive)
- GI50 (HL-60): > 100 µM (inactive)
- GI50 (HCT-15): > 100 µM
- GI50 (OVCAR-8): > 100 µM (inactive)
- GI50 (OVCAR-3): > 100 µM (inactive)
- GI50 (SF-268): > 100 µM (inactive)
- GI50 (SF-295): > 100 µM (inactive)
- GI50 (DMS-114): > 100 µM (inactive)
- GI50 (KM12): > 100 µM (inactive)
- GI50 (HOP-92): > 100 µM (inactive)
- GI50 (SK-MEL-2): > 100 µM (inactive)
- GI50 (KM-20L2): > 100 µM (inactive)
- GI50 (NCI-H522): > 100 µM (inactive)
- GI50 (SN12C): > 100 µM (inactive)
- GI50 (SF-539): > 100 µM (inactive)
- GI50 (SR): 35.7 µM (inactive)
- GI50 (CCRF-CEM): > 100 µM (inactive)
- GI50 (A498): > 100 µM (inactive)
- GI50 (U-251): > 100 µM (inactive)
- GI50 (HOP-62): > 100 µM (inactive)
- GI50 (IGROV-1): > 100 µM (inactive)
- GI50 (NCI-H460): > 100 µM (inactive)
- GI50 (OVCAR-4): > 100 µM (inactive)
- GI50 (SNB-19): > 100 µM (inactive)
- GI50 (786-0): > 100 µM (inactive)
- GI50 (RXF 393): > 100 µM (inactive)
- GI50 (LXFL 529): > 100 µM (inactive)
- GI50 (UACC-257): > 100 µM (inactive)
- GI50 (SK-MEL-28): > 100 µM (inactive)
- GI50 (COLO 205): > 100 µM (inactive)
- GI50 (LOX IMVI): > 100 µM (inactive)
- GI50 (M14): > 100 µM (inactive)
- GI50 (ACHN): > 100 µM (inactive)
- GI50 (HOP-18): > 100 µM (inactive)

Structure (SMILES): NNC(=O)CCC(=O)NC1C2CC3CC(C2)CC1C3 (centres undefined)
- GI50 (HCT-116): > 100 µM (inactive)
- GI50 (HCC 2998): > 100 µM (inactive)
- GI50 (Malme-3M): > 100 µM (inactive)
- GI50 (A549): > 100 µM (inactive)
- GI50 (UO-31): > 100 µM (inactive)
- GI50 (SNB-78): > 100 µM (inactive)
- GI50 (DMS-273): > 100 µM (inactive)
- GI50 (NCI-H226): > 100 µM (inactive)
- GI50 (HT-29): > 100 µM (inactive)
- GI50 (K562): > 100 µM (inactive)
- GI50 (TK-10): > 100 µM (inactive)
- GI50 (DLD-1): > 100 µM (inactive)
- GI50 (RPMI-8226): > 100 µM (inactive)
- GI50 (NCI-H23): > 100 µM (inactive)
- GI50 (UACC-62): > 100 µM (inactive)
- GI50 (MOLT-4): 43.5 µM (inactive)
- GI50 (CAKI-1): > 100 µM (inactive)
- GI50 (SK-OV-3): > 100 µM (inactive)
- GI50 (HL-60): > 100 µM (inactive)
- GI50 (HCT-15): > 100 µM
- GI50 (SW-620): > 100 µM (inactive)
- GI50 (OVCAR-8): > 100 µM (inactive)
- GI50 (SF-268): > 100 µM (inactive)
- GI50 (SF-295): > 100 µM (inactive)
- GI50 (DMS-114): > 100 µM (inactive)
- GI50 (SK-MEL-5): > 100 µM (inactive)
- GI50 (KM12): > 100 µM (inactive)
- GI50 (HOP-92): > 100 µM (inactive)
- GI50 (SNB-75): > 100 µM (inactive)
- GI50 (SK-MEL-2): > 100 µM (inactive)
- GI50 (KM-20L2): > 100 µM (inactive)
- GI50 (NCI-H522): > 100 µM (inactive)
- GI50 (SN12C): > 100 µM (inactive)
- GI50 (SF-539): > 100 µM (inactive)
- GI50 (OVCAR-5): > 100 µM (inactive)
- GI50 (CCRF-CEM): > 100 µM (inactive)
- GI50 (A498): > 100 µM (inactive)
- GI50 (U-251): > 100 µM (inactive)
- GI50 (HOP-62): > 100 µM (inactive)
- GI50 (IGROV-1): > 100 µM (inactive)
- GI50 (NCI-H460): > 100 µM (inactive)
- GI50 (OVCAR-4): > 100 µM (inactive)
- GI50 (SNB-19): > 100 µM (inactive)
- GI50 (786-0): > 100 µM (inactive)
- GI50 (RXF 393): 45.4 µM (inactive)
- GI50 (LXFL 529): > 100 µM (inactive)
- GI50 (UACC-257): > 100 µM (inactive)
- GI50 (M19-MEL): > 100 µM (inactive)
- GI50 (SK-MEL-28): > 100 µM (inactive)
- GI50 (COLO 205): > 100 µM (inactive)
- GI50 (LOX IMVI): > 100 µM (inactive)
- GI50 (M14): > 100 µM (inactive)
- GI50 (ACHN): > 100 µM (inactive)

Structure (SMILES): COc1ccc(N2C(=O)C3CC(c4ccc(Br)cc4)c4c([nH]c5ccccc45)C3C2=O)cc1 (centres undefined)
- GI50 (HCT-116): 6.4 µM (inactive)
- GI50 (Malme-3M): 14.8 µM (inactive)
- GI50 (A549): 2.71 µM (inactive)
- GI50 (UO-31): 11 µM (inactive)
- GI50 (SNB-78): 14.8 µM (inactive)
- GI50 (EKVX): 16.9 µM (inactive)
- GI50 (DMS-273): 6.41 µM (inactive)
- GI50 (NCI-H226): 18.6 µM (inactive)
- GI50 (HT-29): 13.2 µM (inactive)
- GI50 (K562): 5.37 µM (inactive)
- GI50 (TK-10): 7.1 µM (inactive)
- GI50 (DLD-1): 10.1 µM (inactive)
- GI50 (RPMI-8226): 26.7 µM (inactive)
- GI50 (NCI-H23): 11.4 µM (inactive)
- GI50 (UACC-62): 16.1 µM (inactive)
- GI50 (MOLT-4): 10.8 µM (inactive)
- GI50 (CAKI-1): 15.1 µM (inactive)
- GI50 (HL-60): 12.8 µM (inactive)
- GI50 (HCT-15): 90.6 µM
- GI50 (SW-620): 5.81 µM (inactive)
- GI50 (OVCAR-8): 2.13 µM (inactive)
- GI50 (SF-268): 6.78 µM (inactive)
- GI50 (XF498): 13 µM (inactive)
- GI50 (SF-295): 10.8 µM (inactive)
- GI50 (DMS-114): 6.93 µM (inactive)
- GI50 (SK-MEL-5): 16.5 µM (inactive)
- GI50 (KM12): 13.1 µM (inactive)
- GI50 (HOP-92): 12.3 µM (inactive)
- GI50 (SNB-75): 9.12 µM (inactive)
- GI50 (SK-MEL-2): 60.7 µM (inactive)
- GI50 (KM-20L2): 9.46 µM (inactive)
- GI50 (SN12C): 3.93 µM (inactive)
- GI50 (SF-539): 3.52 µM (inactive)
- GI50 (OVCAR-5): 22.6 µM (inactive)
- GI50 (CCRF-CEM): 8.59 µM (inactive)
- GI50 (A498): 9.59 µM (inactive)
- GI50 (HOP-62): 3.91 µM (inactive)
- GI50 (IGROV-1): 10.6 µM (inactive)
- GI50 (NCI-H460): 4.92 µM (inactive)
- GI50 (OVCAR-4): 3.25 µM (inactive)
- GI50 (SNB-19): 3.43 µM (inactive)
- GI50 (786-0): 2.2 µM (inactive)
- GI50 (LXFL 529): 4.07 µM (inactive)
- GI50 (UACC-257): 17.3 µM (inactive)
- GI50 (M19-MEL): 10.2 µM (inactive)
- GI50 (SK-MEL-28): 11.5 µM (inactive)
- GI50 (COLO 205): 9.02 µM (inactive)
- GI50 (LOX IMVI): 4.69 µM (inactive)
- GI50 (M14): 19.5 µM (inactive)
- GI50 (ACHN): 4.51 µM (inactive)
- GI50 (HOP-18): 7.82 µM (inactive)
